Measured values: patent publication US20220378707A1, “1-(((2S,3S,4S)-3-ETHYL-4-FLUORO-5-OXOPYRROLIDIN-2-YL)METHOXY)-7-METHOXYISOQUINOLINE-6-CARBOXAMIDE COMBINATIONS AND ORAL DOSAGE FORMS” (Pfizer Inc., priority 2019, published 2022)

System: HUVEC and M1 macrophages+Zymosan (TLR2 ligand)
Test: BioMAP IMphg system
Format: cell-based, human
Settings: CD14+ derived macrophages; PF-06650833 19-500 nM
Source text: The BioMAP systems consist of human primary cell-based systems designed to model different aspects of the human body in an in vitro format. The 12 systems tested characterized the test compounds across a broad set of systems modeling various human disease states. BioMAP systems were constructed with one or more primary cell types from healthy human donors, with stimuli (such as cytokines or growth factors) added to capture relevant signaling networks that naturally occur in human tissue or pathological conditions. […] Soluble factors from supernatants were quantified using either HTRF® detection, bead-based multiplex immunoassay or capture ELISA. Overt adverse effects of test agents on cell proliferation and viability (cytotoxicity) were detected by sulforhodamine B (SRB) staining, for adherent cells, and alamarBlue® reduction for cells in suspension. […] Each tested compound generated a signature BioMAP profile that was created from the changes in protein biomarker readouts within individual system environments. […] Each readout was measured quantitatively by immune-based methods that detected protein (e.g., ELISA) or functional assays that measured proliferation and viability. BioMAP readouts were diverse and included cell surface receptors, cytokines, chemokines, matrix molecules and enzymes. […]

CC[C@@H]1[C@H](F)C(=O)N[C@@H]1COc1nccc2cc(C(N)=O)c(OC)cc12 [PF-06650833, 1-(((2S,3S,4S)-3-Ethyl-4-fluoro-5-oxopyrrolidin-2-yl)methoxy)-7-methoxyisoquinoline-6-carboxamide]
Activity in the IMphg system: no activity was found
